Measured values from ChEMBL document CHEMBL1201862, “PubChem BioAssay data set” (2004).
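Growth conditions: 96-well plates. Treatment: test compound, 48 hours, 5 concentrations. Analysis: linear interpolation between bracketing concentrations; unreached endpoints set to highest concentration. Abbreviation: GI50, concentration required for 50% inhibition of growth.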 Active and inactive are the calls of the source. No stated cut-off is given here; in the data, active = GI50 up to about 1.1 µM and inactive = higher.

Tests used:
Assay in all cases: DTP human tumour cell line panel, 48 h
NCI-H460 = tested on: NCI-H460
HCT-15 = tested on: HCT-15
K562 = tested on: K562
HOP-92 = tested on: HOP-92
A498 = tested on: A498
SK-MEL-2 = tested on: SK-MEL-2
M14 = tested on: M14
COLO 205 = tested on: COLO 205
SW-620 = tested on: SW-620
OVCAR-5 = tested on: OVCAR-5
KM12 = tested on: KM12
SNB-19 = tested on: SNB-19
HCT-116 = tested on: HCT-116
RXF 393 = tested on: RXF 393
PC-3 = tested on: PC-3
NCI/ADR-RES = tested on: NCI/ADR-RES
DU-145 = tested on: DU-145
MDA-MB-231 = tested on: MDA-MB-231
MDA-MB-435 = tested on: MDA-MB-435

SMILES	GI50 (NCI-H460)	GI50 (HCT-15) [µM]	GI50 (K562)	GI50 (HOP-92)	GI50 (A498)	GI50 (SK-MEL-2)	GI50 (M14)	GI50 (COLO 205)	GI50 (SW-620)	GI50 (OVCAR-5)	GI50 (KM12)	GI50 (SNB-19)	GI50 (HCT-116)	GI50 (RXF 393)	GI50 (PC-3)	GI50 (NCI/ADR-RES)	GI50 (DU-145)	GI50 (MDA-MB-231)	GI50 (MDA-MB-435)
O=C(CC(O)(c1ccccc1)c1ccc(Cl)cc1)NC(=O)c1ccccc1O (centres undefined)	4.37 µM (inactive)	4.12	4.6 µM (inactive)	2.13 µM (inactive)	1.95 µM (inactive)	5.3 µM (inactive)	12.4 µM (inactive)	14.4 µM (inactive)	18.7 µM (inactive)	1.99 µM (inactive)	3.86 µM (inactive)	4.47 µM (inactive)	11.7 µM (inactive)	11.7 µM (inactive)	–	–	–	–	–
O=C(Cc1nc2sc3c(c2c(=O)[nH]1)CCCC3)Nc1ccccc1	> 100 µM (inactive)	> 100	> 100 µM (inactive)	> 100 µM (inactive)	> 100 µM (inactive)	> 100 µM (inactive)	> 100 µM (inactive)	> 100 µM (inactive)	> 100 µM (inactive)	> 100 µM (inactive)	> 100 µM (inactive)	81.8 µM (inactive)	> 100 µM (inactive)	15.5 µM (inactive)	–	–	–	–	–
Cn1nc(-c2cccc(-c3nn(C)/c(=N\CCO)s3)n2)s/c1=N/CCO	> 100 µM (inactive)	> 100	> 100 µM (inactive)	> 100 µM (inactive)	> 100 µM (inactive)	–	> 100 µM (inactive)	> 100 µM (inactive)	> 100 µM (inactive)	> 100 µM (inactive)	> 100 µM (inactive)	> 100 µM (inactive)	> 100 µM (inactive)	> 100 µM (inactive)	–	–	–	–	–
CN1CCC(OC(=O)Oc2ccccc2)(c2ccccc2)CC1	13.5 µM (inactive)	16.7	24.7 µM (inactive)	–	23.8 µM (inactive)	17.9 µM (inactive)	15 µM (inactive)	12.5 µM (inactive)	25.7 µM (inactive)	25.4 µM (inactive)	17.9 µM (inactive)	25.4 µM (inactive)	13 µM (inactive)	37.3 µM (inactive)	18 µM (inactive)	16.6 µM (inactive)	47.1 µM (inactive)	12.9 µM (inactive)	17.3 µM (inactive)
O=C(C1OC1c1ccc(Br)cc1O)C12CC3CC(CC(C3)C1)C2 (centres undefined)	27.6 µM (inactive)	19.4	15.4 µM (inactive)	17.7 µM (inactive)	97.3 µM (inactive)	–	18.1 µM (inactive)	–	18.7 µM (inactive)	41.5 µM (inactive)	19.5 µM (inactive)	34.8 µM (inactive)	14.9 µM (inactive)	21.7 µM (inactive)	23.6 µM (inactive)	30 µM (inactive)	42 µM (inactive)	18.1 µM (inactive)	13.8 µM (inactive)
Cc1cc(C)c2c(c1)Nc1ccccc1P2c1ccccc1 (centres undefined)	22.3 µM (inactive)	16.9	24.5 µM (inactive)	30.9 µM (inactive)	–	–	36.8 µM (inactive)	> 100 µM (inactive)	39.8 µM (inactive)	–	–	26.7 µM (inactive)	–	29.2 µM (inactive)	–	–	–	–	–
COC(=O)n1c(CBr)c(Br)c2ccccc21	24.3 µM (inactive)	42.2	25.4 µM (inactive)	20.1 µM (inactive)	–	23.3 µM (inactive)	> 100 µM (inactive)	> 100 µM (inactive)	47.2 µM (inactive)	30.6 µM (inactive)	42.9 µM (inactive)	44.9 µM (inactive)	39.4 µM (inactive)	–	–	–	–	–	–
CCOC(=O)CCC1(CCC(=O)OCC)CCCCCCCCC(CCC(=O)OCC)(CCC(=O)OCC)C(=O)C1=O	> 100 µM (inactive)	> 100	> 100 µM (inactive)	> 100 µM (inactive)	> 100 µM (inactive)	> 100 µM (inactive)	> 100 µM (inactive)	> 100 µM (inactive)	> 100 µM (inactive)	> 100 µM (inactive)	> 100 µM (inactive)	> 100 µM (inactive)	> 100 µM (inactive)	–	> 100 µM (inactive)	> 100 µM (inactive)	> 100 µM (inactive)	–	> 100 µM (inactive)
CCCCCCCCOCC(O)CO (centres undefined)	> 100 µM (inactive)	> 100	> 100 µM (inactive)	41.8 µM (inactive)	> 100 µM (inactive)	> 100 µM (inactive)	> 100 µM (inactive)	> 100 µM (inactive)	> 100 µM (inactive)	> 100 µM (inactive)	29.5 µM (inactive)	> 100 µM (inactive)	> 100 µM (inactive)	> 100 µM (inactive)	–	–	–	–	–
NCCCCC(=O)c1cccnc1	> 100 µM (inactive)	> 100	> 100 µM (inactive)	> 100 µM (inactive)	> 100 µM (inactive)	> 100 µM (inactive)	> 100 µM (inactive)	–	> 100 µM (inactive)	> 100 µM (inactive)	> 100 µM (inactive)	> 100 µM (inactive)	> 100 µM (inactive)	–	–	–	–	–	–
O=c1c(Cl)c(Cl)cnn1CCc1ccncc1	20.1 µM (inactive)	16.4	35.3 µM (inactive)	20.4 µM (inactive)	21.6 µM (inactive)	20.3 µM (inactive)	16.7 µM (inactive)	–	19.1 µM (inactive)	19.5 µM (inactive)	12.5 µM (inactive)	15.6 µM (inactive)	16.6 µM (inactive)	24.6 µM (inactive)	–	–	–	–	–
COC(=O)CCCc1ccc2c(c1)CC1(Cc3ccccc3C1)C2	–	6.28	–	> 100 µM (inactive)	59.2 µM (inactive)	19.5 µM (inactive)	44.4 µM (inactive)	26.3 µM (inactive)	–	> 100 µM (inactive)	> 100 µM (inactive)	–	26 µM (inactive)	77.1 µM (inactive)	41.1 µM (inactive)	80 µM (inactive)	–	> 100 µM (inactive)	20.6 µM (inactive)
C=CCCCn1ccc2ccccc21	> 100 µM (inactive)	> 100	> 100 µM (inactive)	7.45 µM (inactive)	> 100 µM (inactive)	> 100 µM (inactive)	> 100 µM (inactive)	> 100 µM (inactive)	> 100 µM (inactive)	> 100 µM (inactive)	> 100 µM (inactive)	> 100 µM (inactive)	> 100 µM (inactive)	> 100 µM (inactive)	–	–	–	–	–
CC(C)(CN1CCCCC1)C(=O)/C=C/c1ccc(Cl)cc1	2.69 µM (inactive)	2.65	2.69 µM (inactive)	1.6 µM (inactive)	2.73 µM (inactive)	–	2.51 µM (inactive)	4.82 µM (inactive)	2.57 µM (inactive)	11.4 µM (inactive)	2.95 µM (inactive)	5.15 µM (inactive)	3.4 µM (inactive)	3.86 µM (inactive)	–	–	–	–	–
CCCCCCCCCCCCCCCCCC(=O)OCC(C[As](=O)(O)O)OC(=O)CCCCCCCCCCCCCCCCC (centres undefined)	> 100 µM (inactive)	38.4	44.7 µM (inactive)	11.4 µM (inactive)	> 100 µM (inactive)	70.1 µM (inactive)	> 100 µM (inactive)	–	16 µM (inactive)	> 100 µM (inactive)	> 100 µM (inactive)	20.2 µM (inactive)	60.1 µM (inactive)	19.2 µM (inactive)	–	–	–	–	–
CN(C)CCCNC(=O)CCNC(=O)c1cc(NC(=O)c2cc(NC(=O)c3cc(NC(=O)CCCNC(=O)c4cc(NC(=O)c5cc(NC(=O)c6nccn6C)cn5C)cn4C)cn3C)cn2C)cn1C	> 100 µM (inactive)	> 100	> 100 µM (inactive)	> 100 µM (inactive)	> 100 µM (inactive)	> 100 µM (inactive)	> 100 µM (inactive)	> 100 µM (inactive)	> 100 µM (inactive)	> 100 µM (inactive)	> 100 µM (inactive)	> 100 µM (inactive)	> 100 µM (inactive)	> 100 µM (inactive)	> 100 µM (inactive)	> 100 µM (inactive)	–	> 100 µM (inactive)	> 100 µM (inactive)
CC(C)=C[C@@H]1C[C@H](n2cc(C)c(=O)[nH]c2=O)ON1CCO	> 100 µM (inactive)	> 100	> 100 µM (inactive)	> 100 µM (inactive)	> 100 µM (inactive)	> 100 µM (inactive)	> 100 µM (inactive)	> 100 µM (inactive)	> 100 µM (inactive)	> 100 µM (inactive)	> 100 µM (inactive)	> 100 µM (inactive)	> 100 µM (inactive)	> 100 µM (inactive)	> 100 µM (inactive)	> 100 µM (inactive)	> 100 µM (inactive)	> 100 µM (inactive)	> 100 µM (inactive)
COC1=NN2C(OC)(c3ccccc3)c3c(-c4ccccc4)sc(-c4ccccc4)c3C2(c2ccccc2)S1 (centres undefined)	> 100 µM (inactive)	> 100	> 100 µM (inactive)	> 100 µM (inactive)	> 100 µM (inactive)	> 100 µM (inactive)	> 10 µM (inactive)	> 100 µM (inactive)	> 100 µM (inactive)	> 100 µM (inactive)	> 100 µM (inactive)	> 100 µM (inactive)	> 100 µM (inactive)	–	–	–	–	–	–
CC1O[C@@H]2CCCCC(=O)[C@]2(C)[C@H]1C (some centres undefined)	> 100 µM (inactive)	> 100	> 100 µM (inactive)	> 100 µM (inactive)	–	> 100 µM (inactive)	> 100 µM (inactive)	> 100 µM (inactive)	> 100 µM (inactive)	> 100 µM (inactive)	> 100 µM (inactive)	> 100 µM (inactive)	> 100 µM (inactive)	70.3 µM (inactive)	–	–	–	–	–
CN(C)CCC1(C2=CCCC2)CC/C(=C\c2ccc(Cl)cc2)C1=O (centres undefined)	10.9 µM (inactive)	5.07	2.58 µM (inactive)	3.89 µM (inactive)	6.25 µM (inactive)	4.45 µM (inactive)	2.01 µM (inactive)	12.4 µM (inactive)	9.4 µM (inactive)	12.9 µM (inactive)	9.91 µM (inactive)	11.3 µM (inactive)	8.77 µM (inactive)	2.31 µM (inactive)	–	–	–	–	–
